Among the test systems are OVCAR-5; MOLT-4; UACC-257; HL-60; M14; HOP-92; CAKI-1; SK-MEL-5; M19-MEL; SW-620; COLO 205; OVCAR-8; NCI-H23; CCRF-CEM; HCT-15; IGROV-1; HT-29; ACHN; DU-145; NCI/ADR-RES.
Holding throughout (assay): inhibition of tumour cell growth, NCI panel, 48 h

The results in this text go back to ChEMBL document CHEMBL1201862, “PubChem BioAssay data set” (2004).

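1) Cells in 96-well plates. 2) Compound, 48 h, 5 concentrations. 3) Linear interpolation between surrounding doses. 4) Unreached endpoint = highest concentration. The concentration for 50% growth inhibition is given as GI50.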 Calls of active or inactive are those of the source. No stated cut-off is given here; in the data, active = GI50 up to about 1.1 µM and inactive = higher.

In the case of `CC(C)=Cc1cc(C(=O)NCCNC(=O)c2cc(C=C(C)C)nc(NC#N)n2)nc(NC#N)n1`, the GI50 with OVCAR-5, with MOLT-4, with UACC-257, with HL-60, in the assay with M14 and in the assay with HOP-92 was > 100 µM (inactive) in each case. For the same molecule, the GI50 in the assay on CAKI-1, with SK-MEL-5, in the assay with M19-MEL, with SW-620, in the assay on COLO 205 and in the assay on OVCAR-8 was > 100 µM (inactive) in each case. The GI50 in the assay on NCI-H23 is > 100 µM (inactive); in the assay on CCRF-CEM it was > 100 µM (inactive); in the assay with HCT-15, more than 100 µM; in the assay on IGROV-1 it was > 100 µM (inactive); in the assay on HT-29, > 100 µM (inactive); with ACHN, > 100 µM (inactive).
Take `CN(C)CC1CCC(CN(C)C)C(=O)C1=O` (configuration not stated): the GI50 with OVCAR-5 is 16.5 µM (inactive); in the assay with MOLT-4, 2.03 µM (inactive); in the assay with UACC-257 it was 2.4 µM (inactive); in the assay on HL-60, 2.36 µM (inactive); in the assay with M14, 5.52 µM (inactive); in the assay with HOP-92 it was 1.99 µM (inactive). Also, the GI50 in the assay on CAKI-1 was 1.99 µM (inactive); in the assay with DU-145, 16.5 µM (inactive); with SK-MEL-5 it was 16.3 µM (inactive); in the assay on M19-MEL, 19 µM (inactive); with SW-620, 1.83 µM (inactive); in the assay on COLO 205 it was 1.79 µM (inactive). Moreover, the GI50 was 3.01 µM (inactive) in the assay with OVCAR-8; 14.6 µM (inactive) in the assay with NCI-H23; 1.73 µM (inactive) in the assay with CCRF-CEM; 3 µM in the assay on HCT-15; 17.6 µM (inactive) in the assay on IGROV-1; 7.64 µM (inactive) with HT-29. In addition, the GI50 with ACHN is 4.85 µM (inactive).
Regarding `CC(=O)NNc1nc(C)c(C(/C=C/c2ccc(Cl)cc2)=N/NC(=S)NN)s1`, the GI50 in the assay with OVCAR-5, with MOLT-4, with UACC-257, in the assay on HL-60, in the assay on M14 and with HOP-92 was > 100 µM (inactive) each time. Further, the GI50 in the assay with CAKI-1, in the assay with SK-MEL-5, with M19-MEL, in the assay on SW-620, in the assay with COLO 205 and in the assay with OVCAR-8 was > 100 µM (inactive) each time. The GI50 is > 100 µM (inactive) in the assay with NCI-H23; > 100 µM (inactive) in the assay with CCRF-CEM; more than 100 µM in the assay on HCT-15; > 100 µM (inactive) in the assay with IGROV-1; > 100 µM (inactive) with HT-29; > 100 µM (inactive) with ACHN.
In the case of `COc1cc(C(=O)Nc2cccc3ccccc23)c(Br)c(OC)c1OC`, the GI50 in the assay with OVCAR-5 was 64.4 µM (inactive); in the assay with MOLT-4, 39.7 µM (inactive); with UACC-257, > 100 µM (inactive); in the assay on HL-60, 24.2 µM (inactive); in the assay with M14, > 100 µM (inactive); with HOP-92, 42.2 µM (inactive). For the same molecule, the GI50 in the assay on CAKI-1 was > 100 µM (inactive); with SK-MEL-5, 41.1 µM (inactive); in the assay with M19-MEL, 58.6 µM (inactive); with SW-620, > 100 µM (inactive); in the assay with COLO 205 it was > 100 µM (inactive); with OVCAR-8, 0.0416 µM (active). Moreover, the GI50 was 82 µM (inactive) in the assay with NCI-H23; 33.9 µM (inactive) in the assay on CCRF-CEM; more than 100 µM in the assay with HCT-15; 81.8 µM (inactive) with IGROV-1; > 100 µM (inactive) with HT-29; 81.7 µM (inactive) in the assay with ACHN.
On to `CC(C)=CC(=O)Cc1nc2cc(C)c(C)cc2[nH]c1=O`, for which the GI50 is > 100 µM (inactive) with OVCAR-5; > 100 µM (inactive) in the assay with MOLT-4; > 100 µM (inactive) with UACC-257; > 100 µM (inactive) with HL-60; > 100 µM (inactive) in the assay on M14; 24.9 µM (inactive) in the assay on HOP-92. The GI50 with CAKI-1, with SK-MEL-5, in the assay on M19-MEL, in the assay with SW-620, with COLO 205 and with NCI-H23 was > 100 µM (inactive) throughout. Also, the GI50 is > 100 µM (inactive) in the assay on CCRF-CEM; more than 100 µM in the assay with HCT-15; > 100 µM (inactive) in the assay with IGROV-1; > 100 µM (inactive) in the assay with HT-29; > 100 µM (inactive) in the assay with ACHN.
In the case of `Sc1nnc(COc2ccc(Cl)cc2)[nH]1`, the GI50 in the assay with OVCAR-5, with MOLT-4, in the assay with UACC-257, in the assay on HL-60, with M14 and in the assay with HOP-92 was > 100 µM (inactive) throughout. The GI50 with CAKI-1, with SK-MEL-5, with M19-MEL, in the assay on SW-620, with COLO 205 and in the assay with OVCAR-8 was > 100 µM (inactive) in each case. Moreover, the GI50 in the assay with NCI-H23 was > 100 µM (inactive); with CCRF-CEM, > 100 µM (inactive); in the assay on HCT-15, more than 100 µM; with IGROV-1, > 100 µM (inactive); with HT-29, > 100 µM (inactive); with ACHN it was > 100 µM (inactive).
As to `O=C(CCc1n[nH]c(=S)o1)Nc1ccccc1C(F)(F)F`, the GI50 with OVCAR-5, in the assay on MOLT-4, with UACC-257, with HL-60, with M14 and in the assay with HOP-92 was > 100 µM (inactive) in each case. Also, the GI50 is > 100 µM (inactive) in the assay on CAKI-1; > 100 µM (inactive) in the assay with SK-MEL-5; > 100 µM (inactive) with M19-MEL; 18.2 µM (inactive) in the assay on SW-620; 57.4 µM (inactive) with COLO 205; > 100 µM (inactive) in the assay on OVCAR-8. In addition, the GI50 in the assay on NCI-H23 was > 100 µM (inactive); with CCRF-CEM it was > 100 µM (inactive); with HCT-15 it was 20.2 µM; in the assay with IGROV-1, > 100 µM (inactive); in the assay with HT-29, > 100 µM (inactive); in the assay with ACHN, > 100 µM (inactive).
Consider `COc1ccc(/C=N\O[Si](C)(C)C(C)(C)C)cc1O[Si](C)(C)C(C)(C)C`, for which the GI50 with OVCAR-5 was 22.4 µM (inactive); in the assay on MOLT-4, 17.4 µM (inactive); in the assay with UACC-257, 20.8 µM (inactive); in the assay on HL-60, 19.6 µM (inactive); with M14 it was 20 µM (inactive); with HOP-92, 22.6 µM (inactive). Also, the GI50 in the assay on CAKI-1 was 25.1 µM (inactive); in the assay on SK-MEL-5, 17.3 µM (inactive); in the assay on M19-MEL, 18.2 µM (inactive); in the assay with SW-620 it was 18.7 µM (inactive); in the assay with COLO 205, 22.5 µM (inactive); with OVCAR-8 it was 22.8 µM (inactive). Besides, the GI50 in the assay with NCI-H23 was 19.4 µM (inactive); in the assay on CCRF-CEM, 21.6 µM (inactive); in the assay on HCT-15 it was 18.2 µM; in the assay on IGROV-1, 18.9 µM (inactive); in the assay on HT-29, 17.7 µM (inactive); with ACHN, 18 µM (inactive).
For `OCCCCn1cnc2c(O)ncnc21`, the GI50 in the assay with OVCAR-5, with MOLT-4, in the assay on UACC-257, in the assay with HL-60, in the assay on M14 and in the assay with HOP-92 was > 100 µM (inactive) throughout. For the same molecule, the GI50 in the assay on CAKI-1, in the assay with SK-MEL-5, in the assay with M19-MEL, in the assay on SW-620, with COLO 205 and with OVCAR-8 was > 100 µM (inactive) in each case. In addition, the GI50 with NCI-H23 is > 100 µM (inactive); in the assay with CCRF-CEM, > 100 µM (inactive); in the assay with HCT-15, more than 100 µM; in the assay with IGROV-1 it was > 100 µM (inactive); with HT-29, > 100 µM (inactive); in the assay on ACHN it was > 100 µM (inactive).
On to `C=C(C)[C@@H]1CC=C(CO)CC1` [PERILLYL ALCOHOL], for which the GI50 with OVCAR-5 is 169 µM (inactive); in the assay with MOLT-4, 72.3 µM (inactive); in the assay on UACC-257 it was 533 µM (inactive); in the assay on HL-60 it was 50.1 µM (inactive); with M14, 710 µM (inactive); in the assay on HOP-92, 117 µM (inactive). The GI50 was > 10 µM (inactive) with CAKI-1; > 10 µM (inactive) in the assay on DU-145; 110 µM (inactive) in the assay with SK-MEL-5; 182 µM (inactive) in the assay on M19-MEL; 637 µM (inactive) in the assay with SW-620; > 10 µM (inactive) with NCI/ADR-RES. The GI50 with COLO 205 is 199 µM (inactive); in the assay with OVCAR-8 it was 145 µM (inactive); with NCI-H23, 465 µM (inactive); in the assay on CCRF-CEM, 101 µM (inactive); with HCT-15 it was 167 µM; in the assay with IGROV-1 it was 574 µM (inactive). Besides, the GI50 was 136 µM (inactive) with HT-29 and 121 µM (inactive) with ACHN.
